In patent US20240158446A1, “CYCLIC COMPOUND HAVING SELECTIVE INHIBITORY ACTION ON KRAS OVER HRAS AND NRAS” (CHUGAI SEIYAKU KABUSHIKI KAISHA, priority 2021, published 2024):

Experiments:
[1] = molecular target: GDP-bound HRAS wild-type protein (Homo sapiens, UniProt P01112); assay: Binding to HRAS by surface plasmon resonance (SPR), Single Cycle Kinetics; settings: ratio of KD for GDP-bound HRAS wild-type protein to KD for KRAS, SPR
[2] = molecular target: GDP-bound NRAS wild-type protein (Homo sapiens, UniProt P01111); assay: Binding to NRAS by surface plasmon resonance (SPR), Single Cycle Kinetics; settings: ratio of KD for GDP-bound NRAS wild-type protein to KD for KRAS, SPR
[3] = system: human lung cancer strain NCI-H441; assay: cells; settings: NCI-H441, 96 h, read-out: NCI-H441 IC50 (nM), NCI-H441 cell proliferation, 4 days, CellTiter-Glo;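 also: cell proliferation inhibition after four days measured by CellTiter-Glo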

Chain of GDP-bound HRAS wild-type protein (P01112 whole entry): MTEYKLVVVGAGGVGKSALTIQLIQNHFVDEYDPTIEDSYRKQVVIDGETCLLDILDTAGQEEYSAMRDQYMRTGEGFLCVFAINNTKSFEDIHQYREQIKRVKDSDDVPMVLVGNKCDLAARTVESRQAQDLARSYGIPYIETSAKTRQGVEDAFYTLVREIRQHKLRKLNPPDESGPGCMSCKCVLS
Chain of GDP-bound NRAS wild-type protein (P01111 whole entry): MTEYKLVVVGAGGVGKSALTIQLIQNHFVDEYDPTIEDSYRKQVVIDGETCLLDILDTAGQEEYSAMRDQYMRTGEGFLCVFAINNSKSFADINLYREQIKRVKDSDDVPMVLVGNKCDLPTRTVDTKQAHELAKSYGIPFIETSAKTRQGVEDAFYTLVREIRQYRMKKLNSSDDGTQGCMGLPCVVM

IC50 [3] | SMILES | HRAS/KRAS (KD ratio) [1] | NRAS/KRAS (KD ratio) [2]
26.8 nM | CCC[C@H]1C(=O)N[C@@H]([C@@H](C)CC)C(=O)N(C)CC(=O)N(C)[C@H]2C/C=C\CCN(C2=O)[C@@H](Cc2ccc(C)cc2)C(=O)N(C)CC(=O)N[C@@H](CCc2ccc(C(F)(F)F)c(OC)c2)C(=O)N2C[C@@H](C)C[C@H]2C(=O)NC2(CCC2)C(=O)N(C)[C@@H](C2CCCC2)C(=O)N(C)[C@H](C(=O)N(C)CC)CC(=O)N1C [PP1840] | B (a compound having 3 or more and less than 10 is denoted as B) | A (a compound having 10 or more and less than 20 is denoted as A)
6.7 nM | CC[C@H](C)[C@@H]1NC(=O)[C@H](CC)N(C)C(=O)C[C@@H](C(=O)N(C)C)N(C)C(=O)[C@H](C2CCCC2)N(C)C(=O)C2(CCC2)N(C)C(=O)[C@@H]2CCCN2C(=O)[C@H](CCc2cc(F)c(C(F)(F)F)c(F)c2)NC(=O)CN(C)C(=O)[C@H](Cc2ccc(C)cc2)N2CC/C=C\C[C@@H](C2=O)N(C)C(=O)CN(C)C1=O [PP1782] | B (a compound having 3 or more and less than 10 is denoted as B) | A (a compound having 10 or more and less than 20 is denoted as A)
8 nM | CCCN1C(=O)C[C@@H](C(=O)N(C)C)N(C)C(=O)[C@H](C2CCCC2)N(C)C(=O)C2(CCC2)NC(=O)[C@@H]2C[C@@H](OCC)CN2C(=O)[C@H](CCc2cc(F)c(C(F)(F)F)c(F)c2)NC(=O)CN(C)C(=O)[C@H](Cc2ccc(C(F)(F)F)cc2)N2CC/C=C\C[C@@H](C2=O)N(C)C(=O)CN(C)C(=O)[C@H]([C@@H](C)CC)NC(=O)[C@@H]1CC(C)C [PP1825] | A (a compound having 10 or more and less than 20 is denoted as A) | A (a compound having 10 or more and less than 20 is denoted as A)
5.3 nM | CC[C@H](C)[C@@H]1NC(=O)[C@H](CC2CC2)N(C)C(=O)C[C@@H](C(=O)N(C)C)N(C)C(=O)[C@H](C2CCCC2)N(C)C(=O)C2(CCC2)N(C)C(=O)[C@@H]2CCCN2C(=O)[C@H](CCc2cc(F)c(C(F)(F)F)c(F)c2)NC(=O)CN(C)C(=O)[C@H](Cc2ccc(C)cc2)N2CC/C=C\C[C@@H](C2=O)N(C)C(=O)CN(C)C1=O [PP1796] | B (a compound having 3 or more and less than 10 is denoted as B) | A (a compound having 10 or more and less than 20 is denoted as A)
10.1 nM | CCCN(C)C(=O)[C@@H]1CC(=O)N(C)[C@@H](CC(F)F)C(=O)N[C@@H]([C@@H](C)CC)C(=O)N(C)CC(=O)N(C)[C@H]2C/C=C\CCN(C2=O)[C@@H](Cc2ccc(C(F)(F)F)cc2)C(=O)N(C)CC(=O)N[C@@H](CCc2ccc(C(F)(F)F)c(OC)c2)C(=O)N2C[C@@H](C)C[C@H]2C(=O)NC2(CCC2)C(=O)N(C)[C@@H](C2CCCC2)C(=O)N1C [PP2024] | B (a compound having 3 or more and less than 10 is denoted as B) | A (a compound having 10 or more and less than 20 is denoted as A)
5.5 nM | CCO[C@@H]1C[C@H]2C(=O)NC3(CC(C)(C)C3)C(=O)N(C)[C@@H](C3CCCC3)C(=O)N(C)[C@H](C(=O)N(C)C)CC(=O)N(C)[C@@H](CC3CC3)C(=O)N[C@@H]([C@@H](C)CC)C(=O)N(C)CC(=O)N(C)[C@H]3C/C=C\CCN(C3=O)[C@@H](Cc3ccc(C)cc3)C(=O)N(C)CC(=O)N[C@@H](CCc3ccc(C(F)(F)F)c(OC)c3)C(=O)N2C1 [PP1903] | B (a compound having 3 or more and less than 10 is denoted as B) | A (a compound having 10 or more and less than 20 is denoted as A)
5 nM | CCC[C@H]1C(=O)N[C@@H]([C@@H](C)CC)C(=O)N(C)CC(=O)N(C)[C@H]2C/C=C\CCN(C2=O)[C@@H](Cc2ccc(C)cc2)C(=O)N(C)CC(=O)N[C@@H](CCc2ccc(C(F)(F)F)c(OC)c2)C(=O)N2C[C@@H](C)C[C@H]2C(=O)NC2(CCC2)C(=O)N(C)[C@@H](C2CCCC2)C(=O)N(C)[C@H](C(=O)N(C)C)CC(=O)N1C [PP1857] | B (a compound having 3 or more and less than 10 is denoted as B) | A (a compound having 10 or more and less than 20 is denoted as A)
10.5 nM | CCCN(C)C(=O)[C@@H]1CC(=O)N(C)[C@@H](C2CCC2)C(=O)N[C@@H]([C@@H](C)CC)C(=O)N(C)CC(=O)N(C)[C@H]2C/C=C\CCN(C2=O)[C@@H](Cc2ccc(C(F)(F)F)cc2)C(=O)N(C)CC(=O)N[C@@H](CCc2ccc(C(F)(F)F)c(OC)c2)C(=O)N2C[C@H](OCC)C[C@H]2C(=O)NC2(CCC2)C(=O)N(C)[C@@H](C2CCCC2)C(=O)N1C [PP2023] | B (a compound having 3 or more and less than 10 is denoted as B) | A (a compound having 10 or more and less than 20 is denoted as A)
6 nM | CC[C@H](C)[C@@H]1NC(=O)[C@H](CC(C)C)N(C)C(=O)C[C@@H](C(=O)N(C)C)N(C)C(=O)[C@H](C2CCCC2)N(C)C(=O)C2(CCC2)NC(=O)[C@@H]2C[C@H](C)CN2C(=O)[C@H](CCc2ccc(C(F)(F)F)c(Cl)c2)NC(=O)CN(C)C(=O)[C@H](Cc2ccc(C)cc2)N2CC/C=C\C[C@@H](C2=O)N(C)C(=O)CN(C)C1=O [PP1852] | B (a compound having 3 or more and less than 10 is denoted as B) | A (a compound having 10 or more and less than 20 is denoted as A)
15.2 nM | CCCOC[C@H]1C(=O)N[C@@H]([C@@H](C)CC)C(=O)N(C)CC(=O)N(C)[C@H]2C/C=C\CCN(C2=O)[C@@H](Cc2ccc(C(F)(F)F)cc2)C(=O)N(C)CC(=O)N[C@@H](CCc2cc(F)c(C(F)(F)F)c(F)c2)C(=O)N2C[C@@H](C)C[C@H]2C(=O)NC2(CCC2)C(=O)N(C)[C@@H](C2CCCC2)C(=O)N(C)[C@H](C(=O)N(C)CCC)CC(=O)N1C [PP2008] | A (a compound having 10 or more and less than 20 is denoted as A) | A (a compound having 10 or more and less than 20 is denoted as A)
22.2 nM | CCC[C@H]1C(=O)N[C@@H]([C@@H](C)CC)C(=O)N(C)CC(=O)N(C)[C@H]2C/C=C\CCN(C2=O)[C@@H](Cc2ccc(C)cc2)C(=O)N(C)CC(=O)N[C@@H](CCc2cc(F)c(C(F)(F)F)c(F)c2)C(=O)N2C[C@H](C)C[C@H]2C(=O)NC2(CCC2)C(=O)N(C)[C@@H](C2CCCC2)C(=O)N(C)[C@H](C(=O)N(C)CC)CC(=O)N1C [PP1862] | A (a compound having 10 or more and less than 20 is denoted as A) | A (a compound having 10 or more and less than 20 is denoted as A)
2.5 nM | CCCN(C)C(=O)[C@@H]1CC(=O)N(C)[C@@H](CC)C(=O)N[C@@H]([C@@H](C)CC)C(=O)N(C)CC(=O)N(C)[C@H]2C/C=C\CCN(C2=O)[C@@H](Cc2ccc(C(F)(F)F)cc2)C(=O)N(C)CC(=O)N[C@@H](CCc2ccc(C(F)(F)F)c(OC)c2)C(=O)N2C[C@H](OCC)C[C@H]2C(=O)NC2(CC(C)(C)C2)C(=O)N(C)[C@@H](C2CCCC2)C(=O)N1C [PP1654] | A (a compound having 10 or more and less than 20 is denoted as A) | A (a compound having 10 or more and less than 20 is denoted as A)
14.2 nM | CCCOC[C@H]1C(=O)N[C@@H]([C@@H](C)CC)C(=O)N(C)CC(=O)N(C)[C@H]2C/C=C\CCN(C2=O)[C@@H](Cc2ccc(C(F)(F)F)cc2)C(=O)N(C)CC(=O)N[C@@H](CCc2ccc(C(F)(F)F)c(OC)c2)C(=O)N2C[C@@H](C)C[C@H]2C(=O)NC2(CC(C)(C)C2)C(=O)N(C)[C@@H](C2CCCC2)C(=O)N(C)[C@H](C(=O)N(C)C)CC(=O)N1C [PP1997] | B (a compound having 3 or more and less than 10 is denoted as B) | A (a compound having 10 or more and less than 20 is denoted as A)
7.6 nM | CC[C@H](C)[C@@H]1NC(=O)[C@H](CC2CCC2)N(C)C(=O)C[C@@H](C(=O)N(C)C)N(C)C(=O)[C@H](C2CCCC2)N(C)C(=O)C2(CCC2)N(C)C(=O)[C@@H]2C[C@@H](C)CN2C(=O)[C@H](CCc2cc(F)c(C(F)(F)F)c(F)c2)NC(=O)CN(C)C(=O)[C@H](Cc2ccc(C)cc2)N2CC/C=C\C[C@@H](C2=O)N(C)C(=O)CN(C)C1=O [PP1803] | B (a compound having 3 or more and less than 10 is denoted as B) | A (a compound having 10 or more and less than 20 is denoted as A)
7.6 nM | CC[C@H](C)[C@@H]1NC(=O)[C@H](CC2CC2)N(C)C(=O)C[C@@H](C(=O)N(C)C)N(C)C(=O)[C@H](C2CCCC2)N(C)C(=O)C2(CC(C)(C)C2)NC(=O)[C@@H]2C[C@@H](C)CN2C(=O)[C@H](CCc2ccc(C(F)(F)F)c(OC)c2)NC(=O)CN(C)C(=O)[C@H](Cc2ccc(C)cc2)N2CC/C=C\C[C@@H](C2=O)N(C)C(=O)CN(C)C1=O [PP1901] | B (a compound having 3 or more and less than 10 is denoted as B) | A (a compound having 10 or more and less than 20 is denoted as A)
18.9 nM | CCCN(C)C(=O)[C@@H]1CC(=O)N(C)[C@@H](CCOC)C(=O)N[C@@H]([C@@H](C)CC)C(=O)N(C)CC(=O)N(C)[C@H]2C/C=C\CCN(C2=O)[C@@H](Cc2ccc(C(F)(F)F)cc2)C(=O)N(C)CC(=O)N[C@@H](CCc2ccc(C(F)(F)F)c(OC)c2)C(=O)N2C[C@@H](C)C[C@H]2C(=O)NC2(CCC2)C(=O)N(C)[C@@H](C2CCCC2)C(=O)N1C [PP2029] | B (a compound having 3 or more and less than 10 is denoted as B) | A (a compound having 10 or more and less than 20 is denoted as A)
16.1 nM | CCCN(C)C(=O)[C@@H]1CC(=O)N(C)[C@@H](C2CCC2)C(=O)N[C@@H]([C@@H](C)CC)C(=O)N(C)CC(=O)N(C)[C@H]2C/C=C\CCN(C2=O)[C@@H](Cc2ccc(C(F)(F)F)cc2)C(=O)N(C)CC(=O)N[C@@H](CCc2cc(F)c(C(F)(F)F)c(F)c2)C(=O)N2C[C@H](OCC)C[C@H]2C(=O)NC2(CCC2)C(=O)N(C)[C@@H](C2CCCC2)C(=O)N1C [PP1998] | B (a compound having 3 or more and less than 10 is denoted as B) | A (a compound having 10 or more and less than 20 is denoted as A)
